# Article PMC3878165 (Bioorganic & Medicinal Chemistry Letters, 2013)
# Legend:
# melatonin MT1 receptor = melatonin MT1 receptor (Homo sapiens, UniProt P48039); type: binding
# [1] = tested on: Eurofins lead-profiling screen; type: binding
# PLpro = PLpro (Severe acute respiratory syndrome coronavirus, UniProt P0C6U8); assay: biochemical; set-up: species or system SARS-CoV
# melatonin MT1 receptor, sequence (P48039 whole entry): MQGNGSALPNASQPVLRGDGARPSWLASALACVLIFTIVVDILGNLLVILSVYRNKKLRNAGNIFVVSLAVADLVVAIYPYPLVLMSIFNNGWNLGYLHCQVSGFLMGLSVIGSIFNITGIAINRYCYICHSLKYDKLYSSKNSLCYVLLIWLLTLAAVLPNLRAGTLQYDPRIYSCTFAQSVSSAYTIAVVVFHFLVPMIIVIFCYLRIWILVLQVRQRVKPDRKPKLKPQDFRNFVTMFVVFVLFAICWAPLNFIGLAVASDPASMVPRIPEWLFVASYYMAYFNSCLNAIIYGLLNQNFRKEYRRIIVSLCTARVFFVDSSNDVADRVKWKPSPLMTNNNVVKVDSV
SMILES,melatonin MT1 receptor activity in words (melatonin MT1 receptor),Eurofins Profiler Screen result in words [1],IC50 (PLpro)
O=C(Nc1ccc(N(Cc2ccsc2)C(=O)Cn2nnc3ccccc32)cc1)C1CC1 [16e],modest activity,highly selective,
CCC(C)(C)NC(=O)[C@@H](c1ccn(C)c1)N(C(=O)Cn1nnc2ccccc21)c1ccc(NC(C)=O)cc1 [compound 7],,,> 60 µM
